Source: ChEMBL document CHEMBL1149015, “New taxanes from Taxus brevifolia, 2” (1986)
Values after ≈ are worked out from the molar mass of the structure shown.

Test system: KB
Experiment: Cytotoxicity against human KB cells
Assay type: functional

SMILES	EC50 (Homo sapiens, KB, read-out: ED50 (the source's name))	ED50
CC(=O)O[C@@]12CO[C@@H]1C[C@H](O)[C@@]1(C)C(=O)C(=O)C3=C(C)[C@@H](OC(=O)[C@H](O)[C@@H](NC(=O)c4ccccc4)c4ccccc4)C[C@@](O)([C@@H](OC(=O)c4ccccc4)[C@H]21)C3(C)C	0.02 µg/mL (≈ 0.0247 µM)	
CC(=O)O[C@H]1C(=O)[C@]2(C)[C@H](O)C[C@H]3OC[C@@]3(OC(C)=O)[C@H]2[C@H](OC(=O)c2ccccc2)[C@]2(O)C[C@H](OC(=O)[C@H](O)[C@@H](NC(=O)c3ccccc3)c3ccccc3)C(C)=C1C2(C)C		3 ×10⁻⁵ ug/ml
CC(=O)O[C@H]1C(=O)[C@@]2(C)[C@H]([C@H](OC(=O)c3ccccc3)[C@]3(O)C[C@H](OC(=O)[C@H](O)[C@@H](NC(=O)c4ccccc4)c4ccccc4)C(C)=C1C3(C)C)[C@]1(OC(C)=O)CO[C@@H]1C[C@@H]2O [PACLITAXEL]		1 ×10⁻⁵ ug/ml
